This passage reports IC50 results from US8999982B2, “Pharmaceutically active compounds as Axl inhibitors” (Lead Discovery Center GmbH, priority 2010, dated 2015).

Structures can show the parent of a compound that is named as a salt.

Experiment [1] has as its target T1, Axl (Homo sapiens (Human), UniProt P30530). The experiment is described as follows: Axl binding assay. Here is the method:
Binding of the tracer to the kinase is detected using an EU-labeled anti-tag antibody. […] Binding of an inhibitor to the kinase competes for binding with the tracer, resulting in a loss of FRET-signal. At first a compound according to formula (I) was diluted in 20 mM Hepes pH 8.0, 1 mM DTT, 10 mM MgCl2 and 0.01% Brij35.

For experiment [2], the target named is T1, Axl. The experiment is described as follows: Cellular Axl phosphorylation assay. It is filed as cell-based. Particulars: HEK293 cells transfected with Axl cDNA, 1 hour incubation. Here is the method:
3. Cellular Axl Phosphorylation Assay:
HEK293 embryonal kidney fibroblasts were transfected in 96 wells with a plasmid containing Axl cDNA. As transfection reagent Superfect (Qiagen) was used. Transfection of the sole vector backbone served as negative control of Axl expression. After overnight incubation the cellular supernatant was replaced with fresh medium. On the following day the Axl-expressing cells were incubated for 1 hour with a compound according to formula (I) at the suitable concentrations. […] The mesoscale technology was used for quantification.

T1 sequence (P30530 26-894): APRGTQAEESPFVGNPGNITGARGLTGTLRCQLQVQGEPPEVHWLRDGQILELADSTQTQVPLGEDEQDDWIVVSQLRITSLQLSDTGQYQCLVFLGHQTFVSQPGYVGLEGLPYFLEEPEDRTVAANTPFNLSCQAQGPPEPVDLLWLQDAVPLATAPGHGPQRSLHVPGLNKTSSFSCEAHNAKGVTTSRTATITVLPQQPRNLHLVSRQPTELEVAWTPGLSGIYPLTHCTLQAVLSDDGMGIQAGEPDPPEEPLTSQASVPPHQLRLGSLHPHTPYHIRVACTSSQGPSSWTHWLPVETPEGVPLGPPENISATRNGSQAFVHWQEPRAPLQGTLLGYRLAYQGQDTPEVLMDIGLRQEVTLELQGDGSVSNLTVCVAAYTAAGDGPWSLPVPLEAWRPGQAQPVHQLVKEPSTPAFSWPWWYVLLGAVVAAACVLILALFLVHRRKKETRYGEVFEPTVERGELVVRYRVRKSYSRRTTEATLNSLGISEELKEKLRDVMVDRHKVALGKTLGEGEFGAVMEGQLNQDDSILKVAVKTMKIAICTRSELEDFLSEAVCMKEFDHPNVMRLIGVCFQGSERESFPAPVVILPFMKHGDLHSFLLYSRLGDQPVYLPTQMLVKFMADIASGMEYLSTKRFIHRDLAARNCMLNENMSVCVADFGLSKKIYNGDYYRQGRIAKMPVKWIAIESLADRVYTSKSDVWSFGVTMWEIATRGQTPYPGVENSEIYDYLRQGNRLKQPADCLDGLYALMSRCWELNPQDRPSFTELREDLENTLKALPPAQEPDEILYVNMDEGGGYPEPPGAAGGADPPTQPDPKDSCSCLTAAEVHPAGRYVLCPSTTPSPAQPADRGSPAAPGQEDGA

One may read the IC50 as the point on the concentration scale where inhibition reaches its midpoint. On to `COc1cc2c(Oc3ccc(NC(=O)c4nn(-c5ccc(F)cc5)cc4OC(C)C)cc3F)ccnc2cc1OCCCN1CCOCC1` [Example 45, N-[3-fluoro-4-[[6-methoxy-7-(3-morpholinopropoxy)-4-quinolyl]oxy]phenyl]-1-(4-fluorophenyl)-4-isopropoxy-pyrazole-3-carboxamide], for which the 50% inhibitory concentration (IC50) in experiment [1] and in experiment [2] was < 0.5 µM in each case.
As to `COc1cc2c(Oc3ccc(NC(=O)c4nn(-c5ccc(F)cc5)cc4OCC4CC4)cc3F)ccnc2cc1OCCCN1CCOCC1` [Example 46, 4-(cyclopropylmethoxy)-N-[3-fluoro-4-[[6-methoxy-7-(3-morpholinopropoxy)-4-quinolyl]oxy]phenyl]-1-(4-fluorophenyl)pyrazole-3-carboxamide], the concentration for half-maximal inhibition (IC50) in experiment [1] and in experiment [2] was < 0.5 µM in each case.
Consider `CCOc1cn(-c2ccc(F)cc2Cl)nc1C(=O)Nc1ccc(Oc2ccnc3cc(OCCCN4CCOCC4)c(OC)cc23)c(F)c1` [Example 47, 1-(2-chloro-4-fluoro-phenyl)-4-ethoxy-N-[3-fluoro-4-[[6-methoxy-7-(3-morpholinopropoxy)-4-quinolyl]oxy]phenyl]pyrazole-3-carboxamide], for which the 50% inhibitory concentration (IC50) in experiment [1] and in experiment [2] was < 0.5 µM each time.
In the case of `COc1cc2c(Oc3ccc(NC(=O)c4nn(-c5ccc(F)cc5)cc4OCCN(C)C)cc3F)ccnc2cc1OCCCN1CCOCC1` [Example 48, 4-(2-dimethylaminoethoxy)-N-[3-fluoro-4-[[6-methoxy-7-(3-morpholinopropoxy)-4-quinolyl]oxy]phenyl]-1-(4-fluorophenyl)pyrazole-3-carboxamide], the IC50 in experiment [1] and in experiment [2] was < 0.5 µM in each case.
Regarding `CCOc1cn(-c2ccc(F)cc2Br)nc1C(=O)Nc1ccc(Oc2ccnc3cc(OCCCN4CCOCC4)c(OC)cc23)c(F)c1` [Example 49, 1-(2-bromo-4-fluoro-phenyl)-4-ethoxy-N-[3-fluoro-4-[[6-methoxy-7-(3-morpholinopropoxy)-4-quinolyl]oxy]phenyl]pyrazole-3-carboxamide], the concentration for half-maximal inhibition (IC50) in experiment [1] and in experiment [2] was < 0.5 µM in each case.
On to `COCCOc1cn(-c2ccc(F)cc2)nc1C(=O)Nc1ccc(Oc2ccnc3cc(OCCCN4CCOCC4)c(OC)cc23)c(F)c1` [Example 50, N-[3-fluoro-4-[[6-methoxy-7-(3-morpholinopropoxy)-4-quinolyl]oxy]phenyl]-1-(4-fluorophenyl)-4-(2-methoxyethoxy)pyrazole-3-carboxamide], for which the IC50 in experiment [1] and in experiment [2] was < 0.5 µM throughout.
In the case of `COc1cc2c(Oc3ccc(NC(=O)c4nn(-c5ccc(F)cc5)cc4OCc4ccccc4)cc3F)ccnc2cc1OCCCN1CCOCC1` [Example 51, 4-benzyloxy-N-[3-fluoro-4-[[6-methoxy-7-(3-morpholinopropoxy)-4-quinolyl]oxy]phenyl]-1-(4-fluorophenyl)pyrazole-3-carboxamide], the half-maximal inhibitory concentration (IC50) in experiment [1] and in experiment [2] was < 0.5 µM each time.
On to `COc1cc2c(Oc3ccc(NC(=O)c4nn(-c5ccc(F)cc5)cc4[N+](=O)[O-])cc3F)ccnc2cc1OCCCN1CCOCC1` [Example 52, N-[3-fluoro-4-[[6-methoxy-7-(3-morpholinopropoxy)-4-quinolyl]oxy]phenyl]-1-(4-fluorophenyl)-4-nitro-pyrazole-3-carboxamide], for which the half-inhibitory concentration (IC50) in experiment [1] and in experiment [2] was < 0.5 µM each time.
With `COc1cc2c(Oc3ccc(NC(=O)c4nn(-c5ccc(F)cc5)cc4N)cc3F)ccnc2cc1OCCCN1CCOCC1` [Example 53, 4-amino-N-[3-fluoro-4-[[6-methoxy-7-(3-morpholinopropoxy)-4-quinolyl]oxy]phenyl]-1-(4-fluorophenyl)pyrazole-3-carboxamide], the IC50 in experiment [1] and in experiment [2] was < 0.5 µM in each case.
Take `CCOc1cn(-c2ccc(F)cc2)nc1C(=O)Nc1ccc(Oc2ccnc3cc(OCCCN)c(OC)cc23)c(F)c1` [Example 54, N-[4-[[7-(3-aminopropoxy)-6-methoxy-4-quinolyl]oxy]-3-fluoro-phenyl]-4-ethoxy-1-(4-fluorophenyl)pyrazole-3-carboxamide]: the IC50 in experiment [1] and in experiment [2] was < 0.5 µM each time.
`CCOc1cn(-c2ccc(F)cc2C)nc1C(=O)Nc1ccc(Oc2ccnc3cc(OCCCN)c(OC)cc23)c(F)c1` [Example 55, N-[4-[[7-(3-aminopropoxy)-6-methoxy-4-quinolyl]oxy]-3-fluoro-phenyl]-4-ethoxy-1-(4-fluoro-2-methyl-phenyl)pyrazole-3-carboxamide]: the IC50 in experiment [1] and in experiment [2] was < 0.5 µM throughout.
As for `CCOc1oc(-c2ccc(F)cc2)nc1C(=O)Nc1ccc(Oc2ccnc3cc(OCCCN)c(OC)cc23)c(F)c1` [Example 56, N-[4-[[7-(3-aminopropoxy)-6-methoxy-4-quinolyl]oxy]-3-fluoro-phenyl]-5-ethoxy-2-(4-fluorophenyl)oxazole-4-carboxamide], the IC50 in experiment [1] and in experiment [2] was < 0.5 µM each time.
Take `CCOc1cn(-c2ccc(F)cc2C)nc1C(=O)Nc1ccc(Oc2ccnc3cc(OCCCN4CCN(C)CC4)c(OC)cc23)c(F)c1` [Example 57, 4-ethoxy-N-[3-fluoro-4-[[6-methoxy-7-[3-(4-methylpiperazin-1-yl)propoxy]-4-quinolyl]oxy]phenyl]-1-(4-fluoro-2-methyl-phenyl)pyrazole-3-carboxamide]: the 50% inhibitory concentration (IC50) in experiment [1] and in experiment [2] was < 0.5 µM throughout.
As for `CCOc1cn(-c2ccc(F)cc2)nc1C(=O)Nc1ccc(Oc2ccnc3cc(OCCCN4CCN(C)CC4)c(OC)cc23)c(F)c1` [Example 58, 4-ethoxy-N-[3-fluoro-4-[[6-methoxy-7-[3-(4-methylpiperazin-1-yl)propoxy]-4-quinolyl]oxy]phenyl]-1-(4-fluorophenyl)pyrazole-3-carboxamide], the IC50 in experiment [1] and in experiment [2] was < 0.5 µM each time.
`COc1cc2c(Oc3ccc(NC(=O)c4nn(-c5ccc(F)cc5)cc4OC)cc3F)ccnc2cc1OCCCN1CCN(C)CC1` [Example 59, N-[3-fluoro-4-[[6-methoxy-7-[3-(4-methylpiperazin-1-yl)propoxy]-4-quinolyl]oxy]phenyl]-1-(4-fluorophenyl)-4-methoxy-pyrazole-3-carboxamide]: the 50% inhibitory concentration (IC50) in experiment [1] and in experiment [2] was < 0.5 µM each time.
For the molecule `CCOc1cn(-c2ccc(F)cc2Cl)nc1C(=O)Nc1ccc(Oc2ccnc3cc(OCCCN4CCN(C)CC4)c(OC)cc23)c(F)c1` [Example 60, 1-(2-chloro-4-fluoro-phenyl)-4-ethoxy-N-[3-fluoro-4-[[6-methoxy-7-[3-(4-methylpiperazin-1-yl)propoxy]-4-quinolyl]oxy]phenyl]pyrazole-3-carboxamide], the half-maximal inhibitory concentration (IC50) in experiment [1] and in experiment [2] was < 0.5 µM throughout.
On to `COc1cc2c(Oc3ccc(NC(=O)c4nn(-c5ccc(F)cc5)cc4OCC4CC4)cc3F)ccnc2cc1OCCCN1CCN(C)CC1` [Example 61, 4-(cyclopropylmethoxy)-N-[3-fluoro-4-[[6-methoxy-7-[3-(4-methylpiperazin-1-yl)propoxy]-4-quinolyl]oxy]phenyl]-1-(4-fluorophenyl)pyrazole-3-carboxamide], for which the half-inhibitory concentration (IC50) in experiment [1] and in experiment [2] was < 0.5 µM each time.
Turning to `COc1cc2c(Oc3ccc(NC(=O)c4nn(-c5ccc(F)cc5)cc4OC(C)C)cc3F)ccnc2cc1OCCCN1CCN(C)CC1` [Example 62, N-[3-fluoro-4-[[6-methoxy-7-[3-(4-methylpiperazin-1-yl)propoxy]-4-quinolyl]oxy]phenyl]-1-(4-fluorophenyl)-4-isopropoxy-pyrazole-3-carboxamide], the IC50 in experiment [1] and in experiment [2] was < 0.5 µM each time.
For the molecule `CCOc1oc(-c2ccc(F)cc2)nc1C(=O)Nc1ccc(Oc2ccnc3cc(OCCCN4CCN(C)CC4)c(OC)cc23)c(F)c1` [Example 63, 5-ethoxy-N-[3-fluoro-4-[[6-methoxy-7-[3-(4-methylpiperazin-1-yl)propoxy]-4-quinolyl]oxy]phenyl]-2-(4-fluorophenyl)oxazole-4-carboxamide], the IC50 in experiment [1] and in experiment [2] was < 0.5 µM each time.
Consider `COc1cc2c(Oc3ccc(NC(=O)c4nn(-c5ccc(F)cc5)cc4OCC4CC4)cc3F)ccnc2cc1OCCCN1CCNCC1` [Example 64, 4-(cyclopropylmethoxy)-N-[3-fluoro-4-[[6-methoxy-7-(3-piperazin-1-ylpropoxy)-4-quinolyl]oxy]phenyl]-1-(4-fluorophenyl)pyrazole-3-carboxamide trifluoroacetic acid salt], for which the half-maximal inhibitory concentration (IC50) in experiment [1] and in experiment [2] was < 0.5 µM each time.
`CCOc1cn(-c2ccc(F)cc2)nc1C(=O)Nc1ccc(Oc2ccnc3cc(OCCCN4CCNCC4)c(OC)cc23)c(F)c1` [Example 65, 4-ethoxy-N-[3-fluoro-4-[[6-methoxy-7-(3-piperazin-1-ylpropoxy)-4-quinolyl]oxy]phenyl]-1-(4-fluorophenyl)pyrazole-3-carboxamide]: the IC50 in experiment [1] and in experiment [2] was < 0.5 µM each time.
Turning to `COc1cc2c(Oc3ccc(NC(=O)c4nn(-c5ccc(F)cc5)cc4OC)cc3F)ccnc2cc1OCCCN1CCNCC1` [Example 66, N-[3-fluoro-4-[[6-methoxy-7-(3-piperazin-1-ylpropoxy)-4-quinolyl]oxy]phenyl]-1-(4-fluorophenyl)-4-methoxy-pyrazole-3-carboxamide], the IC50 in experiment [1] and in experiment [2] was < 0.5 µM in each case.
Turning to `COc1cc2c(Oc3ccc(NC(=O)c4nn(-c5ccc(F)cc5)cc4OC(C)C)cc3F)ccnc2cc1OCCCN1CCNCC1` [Example 67, N-[3-fluoro-4-[[6-methoxy-7-(3-piperazin-1-ylpropoxy)-4-quinolyl]oxy]phenyl]-1-(4-fluorophenyl)-4-isopropoxy-pyrazole-3-carboxamide], the IC50 in experiment [1] and in experiment [2] was < 0.5 µM each time.
